Results: PMC9572773, “Effects of Extracts and Flavonoids from Drosera rotundifolia L. on Ciliary Beat Frequency and Murine Airway Smooth Muscle” (Molecules, 2022)
Blank lines part the entries; values can stand above or below the compound they belong to.

Legend:
[1] = system: airway smooth muscle of mouse tracheal slices, acetylcholine-induced contraction; assay: ACh-induced contraction of mouse tracheal slices (tissue bath); type: cell-based, C57BL/6N mice
Description: Male and female C57BL/6N mice (Charles River, Sulzfeld, Germany, and own breeding at the Institute of Pharmaceutical and Medicinal Chemistry, University of Münster, Germany) were housed under standard conditions. Animal care followed the rules of German laws (Az. 53.5.32.7.1/MS-12668, Health and Veterinary Office Münster, Germany). The mice were sacrificed using CO2. A Mayflower horizontal tissue bath (Hugo Sachs Elektronik, Germany) was used to measure contractions. Murine tracheal slices of 3 mm were placed in the 5 mL tissue bath at a preload of 0.2 cN. Krebs–Henseleit buffer (37 °C) was continuously gassed (O2:CO2 95:5). Drosera dry extract (0.5 mg/mL) was solved in Krebs–Henseleit buffer containing 1 % DMSO (DE). DFA was obtained as described above. […] Control solutions contained equal amounts of DMSO depending on the respective test compound. Experiments were started after an equilibration time of 60 min. Tracheal tension was measured isometrically (force transducer F10 Type 375, amplifier TAM-A Type 705/1, evaluation software HSE ACAD 2.0, Harvard Apparatus GmbH, March-Hugstetten, Germany). […] Test solutions were added 10 min before the next ACh bolus. When using a high potassium solution (60 mM K^+), NaCl concentration was reduced to maintain osmolarity. At least 3 K^+-induced contractions (each 20 min) were averaged and taken as control contraction. The maximal contraction represents the highest value, while the plateau (plat.) was calculated in minutes 19–20.

[2] = system: ciliated tracheal epithelium cells; assay: Ciliary beat frequency (CBF) of murine tracheal slices; type: cell-based, C57BL/6N mice; conditions: for CBFRatio (related to CBFBasal): mean ± SD
Method: Male and female C57BL/6N mice (Charles River, Sulzfeld, Germany, and own breeding at the Institute of Pharmaceutical and Medicinal Chemistry, University of Münster, Germany) were housed under standard conditions. Animal care followed the rules of German laws (Az. 53.5.32.7.1/MS-12668, Health and Veterinary Office Münster, Germany). The mice were sacrificed using CO2. Murine tracheal explants were placed in LHC-9 medium (Invitrogen, CA, USA), cut into 0.5 mm slices and stored at 37 °C and an atmosphere of 5% CO2. The medium was changed every 3 days. CBF was measured up to 7 days after dissection. Slices were placed in a 0.7 mL perfusion chamber at 37 °C and perfused with Krebs–Henseleit buffer (1 mL/min). The tissue bath was located at an inverted Nikon Eclipse Ti2 microscope (Nikon GmbH, Düsseldorf, Germany) with a 100× oil objective. Drosera dry extract (0.2 mg/mL) was solved in Krebs–Henseleit buffer containing 0.3% DMSO (DE). The amount of DMSO was not exceeding 0.3%; as for this concentration, no effects on CBF were reported. DFA was prepared as described above. […] 2″-O-Galloylhyperoside, ATP and salbutamol were solved without DMSO. In case DMSO was added, all test solutions of one experiment contained the same amount of DMSO. […] Videos were captured and analyzed by the SAVA software (Ammons Engineering, Clio, MI, USA). Ciliated cells exerted baseline frequencies in a range of 5 to 20 Hz, in agreement with the literature. Data were normalized to values of the last 5 min before changing to a test solution (CBFbasal), and effects on ciliary beating were expressed as a ratio (CBFRatio).

[3] = target: T1, PDE1A (Homo sapiens, UniProt P54750); assay: PDE1A inhibitor assay (fluorescence polarization, cell-free); type: biochemical; conditions: for IC50: cell-free, duplicates, 1% DMSO, CI = confidence interval
T1 construct: purchased Biomol (Hamburg, Germany) #60310
Method: The activity of PDE4D and PDE1A was measured with assay kits #60345 and #60310 from Biomol (Hamburg, Germany). Assays were based on fluorescence polarization using fluorescein amidites-labeled cAMP and were performed according to the manufacturer’s instructions. Samples were recorded as duplicates in a 96-well plate containing equal amounts of DMSO (1%). The fluorescence polarization was measured at excitation wavelengths between 480 and 516 nm and emission wavelengths between 530 and 540 nm by using the plate reader CLARIOstar (BMG Labtech, Ortenberg, Germany). The IC50 values were calculated by a fitting of sigmoidal dose–response curves (variable slope) with GraphPad Prism version 3.00 for Windows (GraphPad, San Diego, CA, USA).

[4] = target: T2, PDE4D (Homo sapiens, UniProt Q08499); assay: PDE4D inhibitor assay (fluorescence polarization, cell-free); type: biochemical; conditions: for IC50: cell-free, duplicates, 1% DMSO, CI = confidence interval
T2 construct: purchased Biomol (Hamburg, Germany) #60345
Method: Assays were based on fluorescence polarization using fluorescein amidites-labeled cAMP and were performed according to the manufacturer’s instructions. Samples were recorded as duplicates in a 96-well plate containing equal amounts of DMSO (1%). […] The IC50 values were calculated by a fitting of sigmoidal dose–response curves (variable slope) with GraphPad Prism version 3.00 for Windows (GraphPad, San Diego, CA, USA).

[5] = system: guinea-pig ileum; parameters: method as in PMID 11933852; conditions: 10 µM; cited from earlier work

T2 sequence (Q08499 303-809 limits assumed): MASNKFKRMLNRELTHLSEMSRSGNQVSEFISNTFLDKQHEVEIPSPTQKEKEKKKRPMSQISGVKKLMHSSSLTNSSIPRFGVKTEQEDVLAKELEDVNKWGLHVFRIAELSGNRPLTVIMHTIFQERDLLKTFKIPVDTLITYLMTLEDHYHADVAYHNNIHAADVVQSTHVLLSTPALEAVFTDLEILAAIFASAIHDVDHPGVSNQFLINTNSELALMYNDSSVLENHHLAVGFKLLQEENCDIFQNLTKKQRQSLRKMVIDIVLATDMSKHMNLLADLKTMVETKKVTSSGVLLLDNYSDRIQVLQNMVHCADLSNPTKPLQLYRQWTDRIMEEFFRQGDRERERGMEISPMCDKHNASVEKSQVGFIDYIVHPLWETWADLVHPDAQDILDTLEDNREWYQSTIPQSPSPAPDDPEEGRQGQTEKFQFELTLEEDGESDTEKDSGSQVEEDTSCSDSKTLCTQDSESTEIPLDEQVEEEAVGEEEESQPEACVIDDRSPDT
T1 sequence (P54750 whole entry): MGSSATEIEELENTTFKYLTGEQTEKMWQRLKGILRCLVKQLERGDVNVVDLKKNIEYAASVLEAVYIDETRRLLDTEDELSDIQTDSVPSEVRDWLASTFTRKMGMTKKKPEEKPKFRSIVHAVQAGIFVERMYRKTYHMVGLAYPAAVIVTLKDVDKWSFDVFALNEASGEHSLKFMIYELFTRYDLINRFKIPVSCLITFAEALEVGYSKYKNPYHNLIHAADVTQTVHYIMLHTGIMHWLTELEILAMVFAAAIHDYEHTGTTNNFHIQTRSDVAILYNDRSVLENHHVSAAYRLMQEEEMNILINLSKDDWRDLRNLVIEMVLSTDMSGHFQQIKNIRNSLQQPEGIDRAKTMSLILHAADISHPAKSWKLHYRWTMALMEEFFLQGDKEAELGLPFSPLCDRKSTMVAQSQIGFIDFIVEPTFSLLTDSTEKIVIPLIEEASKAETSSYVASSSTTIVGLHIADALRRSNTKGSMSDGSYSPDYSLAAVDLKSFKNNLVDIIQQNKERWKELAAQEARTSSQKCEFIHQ

IC50 [3]: 3 µM
IC50 [4]: 1.1 µM
SMILES: O=C(O[C@H]1[C@H](Oc2c(-c3ccc(O)c(O)c3)oc3cc(O)cc(O)c3c2=O)O[C@H](CO)[C@H](O)[C@@H]1O)c1cc(O)c(O)c(O)c1 [2″-O-galloylhyperoside]
ACh-induced contraction, % of control ([1]; 500 µM, 10 min pretreatment, 100 µM ACh): 61 ± 21%
ACh-induced contraction compared with the effect at 500 µM ([1]; 750 and 1000 µM, 100 µM ACh): did not significantly differ
CBFRatio (related to CBFBasal) ([2]; 300 µM, minutes 10 to 15): 1.11 ± 0.04

IC50 [3]: 12 µM
PDE4D activity (% of control without inhibitor) ([4]; 50 µM): 77 ± 6%
PDE4D activity (% of control without inhibitor) ([4]; 100 µM): 70 ± 2%
SMILES: COCc1nc2c([nH]1)c(=O)n(C)c(=O)n2CC(C)C [8MmIBMX, 8-methoxymethyl-IBMX]
increase of CBF on average ([2]; 100 µM): 20%
CBFRatio (related to CBFBasal) ([2]; 100 µM, minutes 10 to 15): 1.2 ± 0.1

IC50 [4]: 3 µM
SMILES: O=c1c(O[C@@H]2O[C@H](CO)[C@H](O)[C@H](O)[C@H]2O)c(-c2ccc(O)c(O)c2)oc2cc(O)cc(O)c12 [Hyperoside, hyperoside]
ACh-mediated contraction force, % of control ([1]; 50 to 750 µM, all concentrations tested, 100 µM ACh): approximately 80%
maximal reduction of ACh-induced contraction force ([1]; maximal effect): 20–25%

SMILES: Nc1ncnc2c1ncn2[C@@H]1O[C@H](COP(=O)(O)OP(=O)(O)OP(=O)(O)O)[C@@H](O)[C@H]1O [ATP]
CBFRatio (related to CBFBasal) ([2]; 30 µM, minutes 10 to 15): 1.4 ± 0.2

SMILES: CC(C)(C)NCC(O)c1ccc(O)c(CO)c1 (stereo not drawn) [salbutamol]
CBFRatio (related to CBFBasal) ([2]; 50 µM, minutes 5 to 10): 1.4 ± 0.3

IC50 [3]: 4 µM
IC50 [4]: 2 µM
SMILES: O=c1c(O)c(-c2ccc(O)c(O)c2)oc2cc(O)cc(O)c12 [quercetin]
abrogation of ACh-induced contraction on ASM ([1]; 10 µM): failed to abrogate
activity at 25 µM ([1]; Mus musculus, 25 µM, 10 min pretreatment, read-out: effect of 100 µM ACh (contraction force, % of control)): 74 ± 11%
activity at 50 µM ([1]; Mus musculus, 50 µM, 10 min pretreatment, read-out: effect of 100 µM ACh (contraction force, % of control)): 63 ± 7%
activity at 100 µM ([1]; Mus musculus, 100 µM, 10 min pretreatment, read-out: effect of 100 µM ACh (contraction force, % of control)): 21 ± 2%
CBFRatio (related to CBFBasal) ([2]; 30 µM, minutes 10 to 15): 1.2 ± 0.2
inhibition of carbachol-induced contractions [5]: more than 50%

remaining activity at 100 µM ([3]; 100 µM, read-out: PDE1A activity (% of control without inhibitor)): 98.2 ± 0.6%
remaining activity at 300 µM ([3]; 300 µM, read-out: PDE1A activity (% of control without inhibitor)): 92 ± 2%
SMILES: COc1ccc(C2CNC(=O)C2)cc1OC1CCCC1 (stereo not drawn) [rolipram]
increase of CBF on average ([2]; 30 µM): 20%
CBFRatio (related to CBFBasal) ([2]; 30 µM, minutes 10 to 15): 1.2 ± 0.2
